Molecular target: T1, Tyrosine-protein kinase receptor UFO (Homo sapiens, UniProt P30530)
T1 sequence (P30530 whole entry): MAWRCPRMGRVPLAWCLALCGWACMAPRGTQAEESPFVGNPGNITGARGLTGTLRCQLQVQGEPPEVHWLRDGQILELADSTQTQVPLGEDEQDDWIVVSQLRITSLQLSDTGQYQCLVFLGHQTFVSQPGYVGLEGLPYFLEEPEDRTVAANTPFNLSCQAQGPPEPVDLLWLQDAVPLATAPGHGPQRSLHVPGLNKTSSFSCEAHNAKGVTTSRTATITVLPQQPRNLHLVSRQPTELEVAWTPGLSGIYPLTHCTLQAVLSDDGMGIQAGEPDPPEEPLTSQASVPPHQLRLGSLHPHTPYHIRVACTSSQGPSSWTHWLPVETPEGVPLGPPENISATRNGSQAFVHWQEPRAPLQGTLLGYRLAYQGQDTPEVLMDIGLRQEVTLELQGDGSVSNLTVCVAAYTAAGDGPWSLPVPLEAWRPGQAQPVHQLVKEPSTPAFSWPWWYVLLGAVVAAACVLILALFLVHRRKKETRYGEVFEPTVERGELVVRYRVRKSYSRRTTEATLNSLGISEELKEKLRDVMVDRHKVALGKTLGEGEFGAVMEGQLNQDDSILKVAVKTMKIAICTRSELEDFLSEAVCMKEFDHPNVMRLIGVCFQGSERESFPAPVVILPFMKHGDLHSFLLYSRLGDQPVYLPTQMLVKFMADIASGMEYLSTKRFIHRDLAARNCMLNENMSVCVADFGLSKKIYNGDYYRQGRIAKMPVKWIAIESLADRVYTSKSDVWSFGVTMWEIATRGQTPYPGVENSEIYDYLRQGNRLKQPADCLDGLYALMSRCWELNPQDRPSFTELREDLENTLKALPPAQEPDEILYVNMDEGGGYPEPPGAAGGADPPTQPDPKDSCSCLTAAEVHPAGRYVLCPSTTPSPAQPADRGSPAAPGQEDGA
Test: Inhibition of AXL (unknown origin)

IC50: 0.044 µM
SMILES: COc1cc2ncnc(Oc3ccc(NC(=O)c4c5n(n(-c6ccccc6)c4=O)CCCC5)cc3)c2cc1OC

From BindingDB's records for PubMed 38714043 (Sichuan University)
